Laboratory results from patent US20240002467A1, “COMPOSITIONS AND METHODS OF INHIBITING THE BINDING OF PLASMA IGG AUTOANTIBODIES TO SEROTONIN 2A RECEPTOR” (UNITED STATES GOVERNMENT AS REPRESENTED BY THE DEPARTMENT …, priority 2020, published 2024).
Several values for one entry are separate records, joined by “and”; a condition that tells them apart may be missing. Equal entries are not always repeated. Ends that are not written are not given here. * marks the point of attachment. Myristoyl = CCCCCCCCCCCCCC(=O)*

Key:
[1] = test system: male Zucker diabetic fatty rats; test: Tail cuff blood pressure in male ZDF rats after IP peptide; type: in vivo, rat; conditions: for systolic blood pressure-lowering at 4 hours post-administration vs baseline: Experiment 2: two male ZDF rats; for Acute Peak diastolic blood pressure-lowering / Acute Peak mean arterial blood pressure-lowering / Acute Peak systolic blood pressure-lowering / Duration of Action, diastolic BP / Duration of Action, mean arterial BP / Duration of Action, systolic BP: two male ZDF rats
Experimental: Animals. Male ZDF and lean (+/?) Zucker rats were obtained from Charles River Laboratories (Kingston, NY) at approximately 6-7 weeks of age. The rats were single housed upon arrival, without enrichment. Rats were acclimatized for two weeks prior to experimental procedures. Rats were provided ad libitum access to food and water and maintained in a 12 h light/dark cycle with lights on at 0630. The procedures occurred during the light phase of the cycle. Blood pressure testing (following acute or chronic administration of the decoy peptides) was conducted in three separate cohorts of animals.
Cohort 1: Three 25-week-old male ZDF and three, age-matched, male Zucker lean rats (ZLR) treated with IP decoy peptide 2 (ZDF) vs saline (vehicle) (ZLR).
Cohort 2: Eleven-week old male ZDF (n=5) and Zucker lean rats (n=4) treated with IP decoy peptide 2.
Cohort 3: Twelve 8.5-week old male Zucker diabetic fatty rats were randomly assigned to one of three treatment groups (n=4/group). The rats underwent baseline blood pressure determinations using tail-cuff plethysmography technique. Next, the animals who expressed baseline hypertension, i.e., blood pressure >135/85, received either a 1 mg/kg intraperitoneal injection of pegylated decoy peptide 2 (n=3); a 2 mg/kg intraperitoneal dose of a scrambled decoy peptide 2 (n=4); or vehicle (i.e., sterile saline) (N=4). Blood pressure was determined at 15 minutes, 45 minutes, 4 hours, 8 hours, 24 hours, 30 and 48 hours following single IP injection. One week later, the same two groups of ZDF rats received either 0.75 mg/kg IP pegylated decoy peptide 2, 2 mg/kg scrambled decoy peptide 2, or sterile saline; and blood pressure was determined at similar timepoints. Two weeks later, two groups of 12-week-old ZDF rats (n=6/group) including those that had previously received acute peglyated decoy peptide 2 or scrambled decoy peptide 2 were treated on an alternative daily schedule with IP, free decoy peptide 2 (2 mg/kg) vs IP scrambled decoy peptide 2 (2 mg/kg) continuously for 13 weeks until sacrifice at 25 weeks of age. Body weight was determined immediately before sacrifice and after perfusion; and hearts were excised and weighed for determination of the heart-to-(perfused) body weight ratio.
Blood pressure monitoring. Tail cuff blood pressure measurement was performed using an automated CODA noninvasive blood pressure system (Kent Scientific, Torrington, CT). Rats were placed on an insulated warming platform in a well-heated room to ensure proper body temperature. Cuff monitors were provided in different sizes to accommodate rats of different ages and having different body weights. After the animal was positioned in the clear plastic restraint holder, the appropriate-sized cuff was slid over the rat's tail.
Statistical Analysis. Comparisons were made using Student's unpaired t-test (Tables 3-6, 9 and FIG. 18) or time series analysis (Tables 7, 8, FIG. 16).
Blood pressure monitoring. Tail cuff blood pressure measurement was performed using an automated CODA noninvasive blood pressure system (Kent Scientific, Torrington, CT.). Rats were placed on an insulated warming platform in a well-heated room to ensure proper body temperature. Cuff monitors were provided in different sizes to accommodate rats of different ages and having different body weights. After the animal was positioned in the clear plastic restraint holder, the appropriate-sized cuff was slid over the rat's tail.
Experiment 1: Four 12-week-old male ZDF rats were randomly assigned to receive either a single IP injection of a scrambled sequence (SEQ ID NO: 7) of Peptide ID #2 (SEQ ID NO: 2) at 1 mg/kg concentration or a 1 mg/kg concentration of myristolated Peptide ID #2 (SEQ ID NO: 9). Blood pressure was determined using tail cuff plethysmography (Kent Scientific) at 1, 4, 6, 48 and 72 hours post-injection.
Experiment 2: Six 12-week-old male ZDF rats were assigned to each of three treatment groups (N=2/group). […]

[2] = Solubility in water on reconstitution; type: physicochemical; conditions: compared with unconjugated peptide; reconstituted in DMSO first
Experimental: Synthetic peptides. The peptides were synthesized at Lifetein Inc. (Hillborough, NJ). The lyophilized peptides were aliquoted and stored (in the presence of desiccant) at −40° C. prior to use. On the day of intraperitoneal (IP) administration, an aliquot of lyophilized unconjugated peptide was reconstituted in sterile saline at the appropriate concentration of 2 mg/kg. Reconstituted peptide was prepared fresh before each injection. […] The final concentration of DMSO in sterile saline was 10%. The vehicle, DMSO in sterile saline, was tested independently and had no effect on blood pressure when administered as an IP injection.

[3] = test system: male Zucker diabetic fatty rats; test: Tail cuff blood pressure in male ZDF rats after IP peptide; type: in vivo, rat; conditions: two 13-week-old male ZDF rats, myristolated 2.5 mg/kg single IP
[4] = test system: Zucker diabetic fatty rats; test: Observation of side effects / tolerability in ZDF rats
[5] = 11-week-old male ZDF rats (N=4/group), single IP Myr-peptide 2 2 mg/kg vs scrambled 1 mg/kg (reference = 0), over 6 days
[6] = Experiment 1: myristolated 1 mg/kg single IP
[7] = four 11-12-week-old male ZDF rats, single 2 mg/kg IP
[8] = male ZDF rats before single 2 mg/kg IP, unconjugated: two 25-week-old, myristolated: four 11-12-week-old
[9] = male ZDF rats, single 2 mg/kg IP, unconjugated: two 25-week-old, myristolated: four 11-12-week-old
[10] = single 2 mg/kg IP vs 1 mg/kg scrambled
[11] = myristolated 1 mg/kg single IP, listed as Myristolated Peptide 2
[12] = myristolated 1.5 mg/kg single IP
[13] = myristolated 1.5 mg/kg single IP, listed as Myristolated Peptide 2
[14] = myristolated 2.0 mg/kg single IP
[15] = myristolated 2.0 mg/kg single IP, listed as Myristolated Peptide 2
[16] = myristolated 2.5 mg/kg single IP
[17] = myristolated 2.5 mg/kg single IP, listed as Myr Peptide 2
[18] = myristolated 2.5 mg/kg single IP, listed as Myristolated Peptide 2

In the case of “Myr-SCLLADDN (Myristoyl-SCLLADDN) [myristolated Peptide ID 2]”, the “Estimate: diastolic blood pressure lowering effect vs scrambled peptide (time series)” value [1, 5] is reported as −12.0471, the “Estimate: systolic blood pressure lowering effect vs scrambled peptide (time series)” value [1, 5] is reported as −17.4393 and the “effect on diastolic blood pressure, in words” value ([1]; Experiment 1: male ZDF rats (N=2/group), 1 mg/kg single IP) is reported as “rapid-onset diastolic blood pressure lowering”. For the same substance, the “effect on systolic blood pressure, in words” value [1, 6] was “significantly lower at 1, 4, 6 hours and 48 hours post-baseline, but not at 72 hours”, the “time span of significantly reduced mean arterial blood pressure” value [1, 6] was 1 to 72 h and the “persistence of systolic blood pressure-lowering” value ([1]; Experiment 2: myristolated 1 mg/kg IP, one value per rat) was 48 to 72 h and 96 to 168 h. For the same substance, the “persistence of declines in diastolic and mean arterial blood pressure” value ([1]; Experiment 2: myristolated 1 mg/kg IP, rat 1 / rat 2) was 2 to 3 days and 4 to 7 days, the “persistence of systolic blood pressure-lowering” value ([1]; Experiment 2: myristolated 1.5 mg/kg IP) was “up to 168 hours” and the “persistence of blood pressure-lowering” value ([1]; Experiment 2: myristolated 1.5 mg/kg IP, both rats) was “up to 7 days”. For the same substance, the “systolic blood pressure-lowering at 4 hours post-administration vs baseline” value ([1]; myristolated 1 mg/kg IP) was 8-11%, the “systolic blood pressure-lowering at 4 hours post-administration vs baseline” value ([1]; myristolated 1.5 mg/kg IP) was 13% and the “mean diastolic BP, 72 hours” value [1, 7] was 80. The “mean diastolic BP, 6 days” value [1, 7] was 85, the “mean diastolic BP, 7 days” value [1, 7] was 94 and the “mean systolic BP, 72 hours” value [1, 7] was 126. The “mean systolic BP, 6 days” value [1, 7] was 127, the “mean systolic BP, 7 days” value [1, 7] was 142 and the “mean diastolic BP, Baseline” value [1, 8] was 97. The “mean systolic BP, Baseline” value [1, 8] was 146, the “mean diastolic BP, 24 hours” value [1, 9] was 76 and the “mean diastolic BP, 48 hours” value [1, 9] was 82. The “mean systolic BP, 24 hours” value [1, 9] was 117, the “mean systolic BP, 48 hours” value [1, 9] was 123 and the “duration of blood pressure lowering” value ([1]; male ZDF rats, single IP 2 mg/kg, myristic acid conjugated) was no less than 6 days. The “mean lowering in diastolic blood pressure compared to scrambled Peptide 2” value [1, 10] was 12 mm Hg, the “mean lowering in systolic blood pressure compared to scrambled Peptide 2” value [1, 10] was 17.4 mm Hg and the “blood pressure-lowering effects, in words” value ([1]; single IP doses ranging from 1.0-2.5 mg/kg) was “potent, dose-dependent, and in many cases unexpectedly quite long-lasting”. The “time until systolic and diastolic blood pressure returned to baseline” value ([1]; two 13-week-old male ZDF rats, myristolated 2.5 mg/kg single IP) was 9 days, the “Acute Peak diastolic blood pressure-lowering” value ([1]; myristolated 1 mg/kg single IP) was 10-12% and the “Acute Peak mean arterial blood pressure-lowering” value ([1]; myristolated 1 mg/kg single IP) was 6-8%. For the same substance, the “Acute Peak systolic blood pressure-lowering” value ([1]; myristolated 1 mg/kg single IP) was 4-10%^, the “Duration of Action, diastolic BP” value ([1]; myristolated 1 mg/kg single IP) was 4 to 6 days and the “Duration of Action, mean arterial BP” value ([1]; myristolated 1 mg/kg single IP) was 4 to 6 days. The “Acute Peak diastolic blood pressure-lowering” value [1, 11] was 10-12%, the “Acute Peak mean arterial blood pressure-lowering” value [1, 11] was 6-8% and the “Duration of Action, systolic BP” value [1, 11] was 4 to 7 days and 7 days. For the same substance, the “Acute Peak diastolic blood pressure-lowering” value [1, 12] was 11-19%, the “Acute Peak mean arterial blood pressure-lowering” value [1, 12] was 14% and the “Acute Peak systolic blood pressure-lowering” value [1, 12] was 10%. For the same substance, the “Duration of Action, diastolic BP” value [1, 12] was 7 days, the “Duration of Action, mean arterial BP” value [1, 12] was 7 days and the “Duration of Action, systolic BP” value [1, 12] was 7 days. The “Acute Peak diastolic blood pressure-lowering” value [1, 13] was 19%, the “Acute Peak mean arterial blood pressure-lowering” value [1, 13] was 14% and the “Acute Peak diastolic blood pressure-lowering” value [1, 14] was 22-25%. For the same substance, the “Acute Peak systolic blood pressure-lowering” value [1, 14] was 7-15%, the “Acute Peak mean arterial blood pressure-lowering” value ([1]; myristolated 2.0 mg/kg single IP, listed as Myr Peptide 2) was 14-22% and the “Acute Peak diastolic blood pressure-lowering” value [1, 15] was 20-25%. For the same substance, the “Acute Peak mean arterial blood pressure-lowering” value [1, 15] was 14-22%, the “Acute Peak systolic blood pressure-lowering” value [1, 15] was 15% and the “Acute Peak systolic blood pressure-lowering” value [1, 16] was 20-23%. The “Duration of Action, diastolic BP” value [1, 16] was 9 days, the “Duration of Action, mean arterial BP” value [1, 16] was 9 days and the “Duration of Action, systolic BP” value [1, 16] was 9 days. For the same substance, the “Acute Peak diastolic blood pressure-lowering” value [1, 17] was 18-35%, the “Acute Peak mean arterial blood pressure-lowering” value [1, 17] was 28-30% and the “Acute Peak diastolic blood pressure-lowering” value [1, 18] was 18-36%. For the same substance, the “Acute Peak mean arterial blood pressure-lowering” value [1, 18] was 19-30%, the “Acute Peak systolic blood pressure-lowering” value [1, 18] was 23% and the “solubility in water, in words” value [2] was “lower solubility in water”. For the same substance, the “duration of persistent blood pressure lowering” value ([3]; listed as myristolated decoy Peptide 2) was 9 days, the “duration of persistent blood pressure lowering” value ([3]; listed as myristolated decoy peptide 2) was 8 days and the “adverse physical or behavioral effects” value ([4]; Experiment 1: male ZDF rats, myristolated 1 mg/kg IP) was “No discernable adverse physical or behavioral effects”. For the same substance, the “untoward physical or behavioral effect” value ([4]; ten ZDF rats (Expt 1 and 2), up to 14-21 days after single IP) was “None of the ten rats tested (N=4 in Expt 1; N=6 in Expt 2) experienced any untoward physical or behavioral effect”.
